Series [1] in a line: Pharmacokinetic test of compound in SD rat. The class given is in vivo. The following applies: SD rats, intragastric administration (IG), cassette dosing. The method, then: Example 28: Pharmacokinetic Test of Compound in SD Rat
The animal species used in this experiment were SD rats. There were 3 animals per group. The rats were dosed in cassette format, i.e., multiple (1-6) different compounds were dosed simultaneously to the same group of the SD rats. The vehicle used for the drug was 5% DMSO+5% Solutl+90% ([…] methylcellulose M450), and the administration route was intragastric administration (IG).

In another series the target is T1, ADORA3 receptor (Homo sapiens, UniProt P0DMS8).
T1 sequence (P0DMS8 1-318): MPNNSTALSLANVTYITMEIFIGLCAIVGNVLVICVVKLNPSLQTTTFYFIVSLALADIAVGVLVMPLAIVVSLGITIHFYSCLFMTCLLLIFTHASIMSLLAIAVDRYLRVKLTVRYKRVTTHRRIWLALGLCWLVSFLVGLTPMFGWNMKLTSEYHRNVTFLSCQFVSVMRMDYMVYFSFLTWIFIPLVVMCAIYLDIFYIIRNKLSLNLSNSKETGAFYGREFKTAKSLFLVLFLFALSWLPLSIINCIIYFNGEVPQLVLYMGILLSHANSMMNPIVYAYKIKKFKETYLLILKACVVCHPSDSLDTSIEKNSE
Kind of series: Agonistic effect on adenosine A3 receptor by FLIPR assay (calcium flux assay). The following applies: agonist mode. The class given is cell-based. The protocol:
Example 27: Agonistic Effect of Compound on Adenosine A3 Receptor by FLIPR Assay (Calcium Flux Assay)
First Day: Cell Inoculation
• 1) With regard to ADORA3 receptor, cultured cells were used for inoculation: the culture medium was aspirated and the cells were washed twice with 10 mL of DPBS. 2 mL of 0.05% EDTA-trypsin was added and the cells were incubated at 37° C. for 1 minute. Then 10 mL of the culture medium was added to stop the digestion and the cell suspension was transferred to a 50-mL tapered tube. • 2) The 50-mL tapered tube containing the various cells was centrifuged at 300 g for 5 minutes. • 3) A supernatant was aspirated and no cells should be aspirated. • 4) The cell precipitate was resuspended in 6-8 mL of the culture medium, and then 0.5 mL of the cells were taken out for cell counting by using a Vi-cell XR cell viability analyzer. • 5) The cell suspension was diluted to 1×10^6 cells/mL (20 μL of 20,000 cells per well) in the culture medium and the cells were inoculated into a cell plate (384-well Poly-D-lysine protein-coated plate, Greiner-781946). • 6) The plate was placed in a 37° C./5% CO2 incubator for 16-20 hours. Second Day: • 1) Preparation of 2×Fluo-4 Direct™ uptaking dye • a. Preparation of probenecid solution • 1 mL of FLIPR assay buffer was added to 77 mg of probenecid (provided by Fluo-4 Direct™ calcium assay kit) to be prepared into 250 mM of a probenecid solution. The fresh probenecid solution was used daily. • b. 2×(8 μM) Fluo-4 Direct™ loading dye (per 10 mL)
A vial of the Fluo-4 Direct™ crystal was thawed and then 10 mL of the FLTPR analytical buffer was added to the vial. Then 0.2 mL of 250 mM of a probe solution was added to every 10 mL Fluo-4 Direct™ crystal to a final assay concentration of 2.5 mM. The solution was vortexed and stood for >5 min at a dark place. 2×Fluo-4 Direct™ uptaking dye was freshly prepared daily. • 2) Compound preparation • a. Preparation of compound plate: all reference and test compounds were serially diluted 4-fold in 10 points by using an Echo liquid processor and then 900 nL of the diluted compounds were transferred to a compound plate. • b. 30 μL FLIPR analytical buffer was added to the compound plate and the plate was centrifuged at 300 g for 1 minute. • 3) FLIPR analysis • a. With regard to ADORA3 receptor: firstly, the cell plate was taken out from a culture box. The culture medium was then aspirated and 20 μL of the FLIPR analytical buffer was added. The cell plate was placed in an incubator for 45 minutes and at a room temperature for 15 minutes. • b. To run an experimental solution on […], 10 μL of the FLIPR analytical buffer was transferred from the compound plate to a cell plate, and then the fluorescent signal was read. Then 10 μL of a compound solution was transferred from the compound plate to the cell plate and the fluorescence signal was read. “Max−min” was calculated from Reader 91 to an allowed maximum value. • c. With regard to agonist: activation %=(RLU−LC)/(HC−LC)*100, • wherein RLU=relative light unit, allowed maximum signal was 91; HC=average signal of high concentration agonist; and LC=mean signal of DMSO well. • d. Data were fitted to a model “log (agonist) versus response-variable slope” by using GraphPad Prism 5 to determine an EC50 value. • e. […] 2. Test Result
Background: A change in cytosolic calcium serves as a functional read-out for many receptors and channels.

In series [2] the target is T2, ADORA3 receptor (CHO cells stably expressing ADORA3 receptor) (Homo sapiens, UniProt P0DMS8).
T2 construct: expressed in transfected cells
T2 sequence (P0DMS8 1-318): T1 sequence (P0DMS8 1-318)
Kind of series: Effect of compound on intracellular cAMP level by adenosine A3 receptor agonism. The class given is cell-based. The settings on record: forskolin-stimulated. The procedure, abridged: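 Agonism read as change in forskolin-stimulated cAMP by TR-FRET competition (Eu-cAMP tracer, ULight anti-cAMP antibody). Compound tested as 10 three-fold dilutions on ADORA3-CHO cells in buffer containing rolipram, incubated at 37 °C. Hill fit of % activation against log concentration gives EC50.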
A general note: Cyclic AMP is a second messenger, typically raised through Gs and lowered through Gi signalling.

The term EC50 denotes the concentration needed to bring the measured effect to its halfway point.

In the case of `CNC(=O)[C@H]1O[C@@H](n2cnc3c(NCc4cccc(C)n4)nc(-c4cncc(Cl)c4)nc32)[C@H](O)[C@@H]1O` [compound 112], in series [1], the “AUC_D” value turned out to be 1790.18 kg·ng·h/mL/mg. The half-maximal effective concentration (EC50) was 44.4 nM at ADORA3 receptor and 3.53 nM in series [2].

Regarding `[2H]C([2H])([2H])NC(=O)[C@H]1O[C@@H](n2cnc3c(NCc4ccco4)nc(-c4cncc(Cl)c4)nc32)[C@H](O)[C@@H]1O` [compound 256, (2S,3S,4R,5R)-5-(2-(5-chloropyridin-3-yl)-6-((furan-2-ylmethyl)amino)-9H-purin-9-yl)-3,4-dihydroxyl-N-(methyl-d3)tetrahydrofuran-2-carboxamide], in series [1], the “AUC_D” value came out at 706.00 kg·ng·h/mL/mg. Moreover, the concentration for a half-maximal effect (EC50) worked out at 98.5 nM at ADORA3 receptor and 11.6 nM in series [2].

For `CNC(=O)[C@H]1O[C@@H](n2cnc3c(NCc4ccccn4)nc(-c4cncc(Cl)c4)nc32)[C@H](O)[C@@H]1O` [compound 306, (2S,3S,4R,5S)-5-(2-(5-chloropyridin-3-yl)-6-((pyridin-2-lymethyl)amino)-9H-purin-9-yl)-3,4-dihydroxyl-N-methyltetrahydrofuran-2-carboxamide], the “AUC_D” value in series [1] was found to be 659.04 kg·ng·h/mL/mg. The concentration for a half-maximal effect (EC50) on ADORA3 receptor came out at 39.2 nM; in series [2], 5.81 nM.

Take `CNC(=O)[C@H]1O[C@@H](n2cnc3c(NCc4cc(C)ccc4F)nc(-c4cncc(Cl)c4)nc32)[C@H](O)[C@@H]1O` [compound 226, (2S,3S,4R,5R)-5-(2-(5-chloropyridin-3-yl)-6-((2-fluoro-5-methylbenzyl)amino)-9H-purin-9-yl)-3,4-dihydroxyl-N-methyltetrahydrofuran-2-carboxamide]: in series [1], the “AUC_D” value came to 20055.61 kg·ng·h/mL/mg. In addition, the 50% effective concentration (EC50) on ADORA3 receptor was 33.5 nM; in series [2], 1.2 nM.

`CNC(=O)[C@H]1O[C@@H](n2cnc3c(NCc4cc(C)ccc4Cl)nc(-c4cncc(Cl)c4)nc32)[C@H](O)[C@@H]1O` [compound 177, (2S,3S,4R,5R)-5-(6-(2-chloro-5-methylbenzylamino)-2-(5-chloropyridin-3-yl)-9H-purin-9-yl)-3,4-dihydroxyl-N-methyl-tetrahydrofuran-2-formamide]: in series [1], the “AUC_D” value was found to be 5247.70 kg·ng·h/mL/mg. The EC50 at ADORA3 receptor was found to be 70.3 nM; in series [2] it was 2.08 nM.

As to `CNC(=O)[C@H]1OC(n2cnc3c(NCc4ccccn4)nc(-c4cncc(F)c4)nc32)[C@H](O)[C@@H]1O` (stereo in doubt) [compound 305, (2S,3S,4R,5S)-5-(2-(5-fluoropyridin-3-yl)-6-((pyridin-2-ylmethyl)amino)-9H-purin-9-yl)-3,4-dihydroxyl-N-methyltetrahydrofuran-2-carboxamide], in series [1], the “AUC_D” value turned out to be 161.47 kg·ng·h/mL/mg. Also, the 50% effective concentration (EC50) on ADORA3 receptor was found to be 10.9 nM; in series [2], 2.73 nM.

On to `CNC(=O)[C@H]1O[C@@H](n2cnc3c(NCc4cccc(Cl)n4)nc(-c4cncc(Cl)c4)nc32)[C@H](O)[C@@H]1O` [compound 308], for which the “AUC_D” value in series [1] was 986.00 kg·ng·h/mL/mg. Besides, the EC50 was found to be 71.4 nM at ADORA3 receptor and 3.27 nM in series [2].
